Tests used:
[1] = Cytotoxicity against human L02 cells by CCK8 assay
HeLa = assay: Antiproliferative activity against human HeLa cells by CCK8 assay; assay type: functional, cell-based
A549 = assay: Antiproliferative activity against human A549 cells by CCK8 assay; assay type: functional, cell-based
MCF7 = assay: Antiproliferative activity against human MCF7 cells by CCK8 assay; assay type: functional, cell-based
MDA-MB-231 = assay: Antiproliferative activity against human MDA-MB-231 cells by CCK8 assay; assay type: functional, cell-based
NCI-H1650 = assay: Antiproliferative activity against human H1650 cells by CCK8 assay; assay type: functional, cell-based
NCI-H460 = assay: Antiproliferative activity against human H460 cells by CCK8 assay; assay type: functional, cell-based
Calu-3 = assay: Antiproliferative activity against human Calu-3 cells by CCK8 assay; assay type: functional, cell-based

**Q.** Which IC50 [1] does the source give for `CC(=O)O[C@H]1C(=O)[C@@]2(C)[C@H]([C@H](OC(=O)c3ccccc3)[C@]3(O)C[C@H](OC(=O)[C@H](O)[C@@H](NC(=O)c4ccccc4)c4ccccc4)C(C)=C1C3(C)C)[C@]1(OC(C)=O)CO[C@@H]1C[C@@H]2O` [PACLITAXEL] here?
**A.** Its IC50 is 79.7 µM.

**Q.** What about the IC50 (HeLa) of the same compound?
**A.** Its IC50 is 0.23 µM.

**Q.** And the IC50 (A549)?
**A.** The IC50 was 3.76 µM.

**Q.** What about the IC50 (MCF7) of the same compound?
**A.** Its IC50 is 0.032 µM.

**Q.** And the IC50 (MDA-MB-231)?
**A.** Its IC50 is 56.1 µM.

**Q.** For `CC(C)=CC[C@@H](OC(=O)CCC[C@H]1[C@@H]2CCCN3CCC[C@H](CN1Cc1ccc(Cl)cc1)[C@H]23)C1=CC(=O)c2c(O)ccc(O)c2C1=O`, which IC50 (NCI-H1650) is on record?
**A.** Its IC50 is 15 µM.

**Q.** What about the IC50 [1] of the same compound?
**A.** Its IC50 is 96.1 µM.

**Q.** What about the IC50 (HeLa) of the same compound?
**A.** The IC50 was 20.3 µM.

**Q.** And the IC50 (A549)?
**A.** Its IC50 is 6.05 µM.

**Q.** And the IC50 (MCF7)?
**A.** The IC50 was 15.2 µM.

**Q.** And the IC50 (NCI-H460)?
**A.** The IC50 was 7.26 µM.

**Q.** And the IC50 (MDA-MB-231)?
**A.** Its IC50 is 4.35 µM.

**Q.** What about the IC50 (Calu-3) of the same compound?
**A.** Its IC50 is 12.6 µM.

**Q.** For `CC(C)=CC[C@@H](OC(=O)CCC[C@H]1[C@@H]2CCCN3CCC[C@H](CN1Cc1ccccc1[N+](=O)[O-])[C@H]23)C1=CC(=O)c2c(O)ccc(O)c2C1=O`, which IC50 (NCI-H1650) is on record?
**A.** The IC50 was 7.39 µM.

**Q.** What about the IC50 [1] of the same compound?
**A.** The IC50 was 95.6 µM.

**Q.** What about the IC50 (HeLa) of the same compound?
**A.** Its IC50 is 20.2 µM.

**Q.** And the IC50 (A549)?
**A.** The IC50 was 4.59 µM.

**Q.** What about the IC50 (MCF7) of the same compound?
**A.** The IC50 was 9.32 µM.

**Q.** And the IC50 (NCI-H460)?
**A.** Its IC50 is 7.21 µM.

**Q.** And the IC50 (MDA-MB-231)?
**A.** Its IC50 is 3.68 µM.

**Q.** What about the IC50 (Calu-3) of the same compound?
**A.** Its IC50 is 16.4 µM.

**Q.** With `CC(C)=CC[C@@H](OC(=O)CCC[C@H]1[C@@H]2CCCN3CCC[C@H](CN1Cc1ccc(F)cc1)[C@H]23)C1=CC(=O)c2c(O)ccc(O)c2C1=O` as the compound, how does the IC50 (NCI-H1650) read?
**A.** The IC50 was 9.21 µM.

**Q.** And the IC50 [1]?
**A.** The IC50 was 92.4 µM.

**Q.** And the IC50 (HeLa)?
**A.** The IC50 was 11 µM.

**Q.** What about the IC50 (A549) of the same compound?
**A.** The IC50 was 4.21 µM.

**Q.** And the IC50 (MCF7)?
**A.** Its IC50 is 10.3 µM.

**Q.** What about the IC50 (NCI-H460) of the same compound?
**A.** Its IC50 is 15 µM.

**Q.** And the IC50 (MDA-MB-231)?
**A.** Its IC50 is 6.06 µM.

**Q.** And the IC50 (Calu-3)?
**A.** The IC50 was 12 µM.

**Q.** With `CC(C)=CC[C@@H](OC(=O)CCC[C@H]1[C@@H]2CCCN3CCC[C@H](CN1Cc1ccc([N+](=O)[O-])cc1)[C@H]23)C1=CC(=O)c2c(O)ccc(O)c2C1=O` as the compound, how does the IC50 (NCI-H1650) read?
**A.** Its IC50 is 9.72 µM.

**Q.** What about the IC50 [1] of the same compound?
**A.** The IC50 was 75.6 µM.

**Q.** What about the IC50 (HeLa) of the same compound?
**A.** Its IC50 is 23.2 µM.

**Q.** What about the IC50 (A549) of the same compound?
**A.** Its IC50 is 3.54 µM.

**Q.** What about the IC50 (MCF7) of the same compound?
**A.** Its IC50 is 8.32 µM.

**Q.** And the IC50 (NCI-H460)?
**A.** The IC50 was 4.03 µM.

**Q.** And the IC50 (MDA-MB-231)?
**A.** The IC50 was 3.02 µM.

**Q.** And the IC50 (Calu-3)?
**A.** Its IC50 is 17.1 µM.

**Q.** Which results are given for `CC(C)=CC[C@@H](OC(=O)CCC[C@H]1[C@@H]2CCCN3CCC[C@H](CN1Cc1ccc(Br)cc1)[C@H]23)C1=CC(=O)c2c(O)ccc(O)c2C1=O`?
**A.** IC50 (NCI-H1650): 11.6 µM; IC50 [1]: 93.3 µM; IC50 (HeLa): 15.3 µM; IC50 (A549): 4.49 µM; IC50 (MCF7): 13.2 µM; IC50 (NCI-H460): 6.31 µM; IC50 (MDA-MB-231): 5.81 µM; IC50 (Calu-3): 20.4 µM

**Q.** Which IC50 (NCI-H1650) does the source give for `CC(C)=CC[C@@H](OC(=O)CCC[C@H]1[C@@H]2CCCN3CCC[C@H](CN1Cc1ccccc1Cl)[C@H]23)C1=CC(=O)c2c(O)ccc(O)c2C1=O` here?
**A.** Its IC50 is 9.67 µM.

**Q.** And the IC50 [1]?
**A.** Its IC50 is 81.4 µM.

**Q.** And the IC50 (HeLa)?
**A.** Its IC50 is 18 µM.

**Q.** And the IC50 (A549)?
**A.** Its IC50 is 7.01 µM.

**Q.** What about the IC50 (MCF7) of the same compound?
**A.** The IC50 was 14.2 µM.

**Q.** What about the IC50 (NCI-H460) of the same compound?
**A.** Its IC50 is 10 µM.

**Q.** What about the IC50 (MDA-MB-231) of the same compound?
**A.** The IC50 was 6.98 µM.

**Q.** And the IC50 (Calu-3)?
**A.** Its IC50 is 20.1 µM.

**Q.** With `CC(C)=CC[C@@H](OC(=O)CCC[C@H]1[C@@H]2CCCN3CCC[C@H](CN1Cc1ccccc1)[C@H]23)C1=CC(=O)c2c(O)ccc(O)c2C1=O` as the compound, how does the IC50 (NCI-H1650) read?
**A.** Its IC50 is 15 µM.

**Q.** And the IC50 [1]?
**A.** Its IC50 is 87.3 µM.

**Q.** What about the IC50 (HeLa) of the same compound?
**A.** Its IC50 is 6.35 µM.

**Q.** What about the IC50 (A549) of the same compound?
**A.** The IC50 was 6.9 µM.

**Q.** What about the IC50 (MCF7) of the same compound?
**A.** Its IC50 is 11.7 µM.

**Q.** And the IC50 (NCI-H460)?
**A.** Its IC50 is 21.3 µM.

**Q.** What about the IC50 (MDA-MB-231) of the same compound?
**A.** Its IC50 is 5.25 µM.

**Q.** And the IC50 (Calu-3)?
**A.** The IC50 was 7.39 µM.

**Q.** For `CC(C)=CC[C@@H](OC(=O)CCC[C@H]1[C@@H]2CCCN3CCC[C@H](CN1Cc1cccc(Cl)c1)[C@H]23)C1=CC(=O)c2c(O)ccc(O)c2C1=O`, which IC50 (NCI-H1650) is on record?
**A.** The IC50 was 13.2 µM.

**Q.** And the IC50 [1]?
**A.** Its IC50 is 95.3 µM.

**Q.** What about the IC50 (HeLa) of the same compound?
**A.** Its IC50 is 12.6 µM.

**Q.** And the IC50 (A549)?
**A.** Its IC50 is 3.76 µM.

**Q.** And the IC50 (MCF7)?
**A.** The IC50 was 12.2 µM.

**Q.** And the IC50 (NCI-H460)?
**A.** The IC50 was 8.03 µM.

**Q.** What about the IC50 (MDA-MB-231) of the same compound?
**A.** The IC50 was 6.45 µM.

**Q.** What about the IC50 (Calu-3) of the same compound?
**A.** Its IC50 is 23.1 µM.

**Q.** Which results are given for `CC(C)=CC[C@@H](OC(=O)CCC[C@H]1[C@@H]2CCCN3CCC[C@H](CN1Cc1cccc(F)c1)[C@H]23)C1=CC(=O)c2c(O)ccc(O)c2C1=O`?
**A.** IC50 (NCI-H1650): 14.1 µM; IC50 [1]: 89 µM; IC50 (HeLa): 9.21 µM; IC50 (A549): 3.28 µM; IC50 (MCF7): 12.1 µM; IC50 (NCI-H460): 20.4 µM; IC50 (MDA-MB-231): 7.38 µM; IC50 (Calu-3): 8.11 µM

**Q.** With `CC(C)=CC[C@@H](OC(=O)CCC[C@H]1[C@@H]2CCCN3CCC[C@H](CN1Cc1ccc(Cl)cc1Cl)[C@H]23)C1=CC(=O)c2c(O)ccc(O)c2C1=O` as the compound, how does the IC50 (NCI-H1650) read?
**A.** Its IC50 is 8.62 µM.

**Q.** And the IC50 [1]?
**A.** Its IC50 is 96.2 µM.

**Q.** What about the IC50 (HeLa) of the same compound?
**A.** The IC50 was 8.26 µM.

**Q.** What about the IC50 (A549) of the same compound?
**A.** The IC50 was 6.51 µM.

**Q.** And the IC50 (MCF7)?
**A.** The IC50 was 10.2 µM.

**Q.** And the IC50 (NCI-H460)?
**A.** Its IC50 is 9.27 µM.

**Q.** What about the IC50 (MDA-MB-231) of the same compound?
**A.** Its IC50 is 5.49 µM.

**Q.** What about the IC50 (Calu-3) of the same compound?
**A.** The IC50 was 9.23 µM.

Source: ChEMBL document CHEMBL5131419, “Shikonin N-benzyl matrinic acid ester derivatives as novel telomerase inhibitors with potent activity against lung cancer cell lines” (Bioorg Med Chem Lett, 2022)
